This is an account of results in patent publication US20230295152A1 (SENDA BIOSCIENCES, INC., priority 2019, published 2023).

pIC50: −log10 of the molar value.

The assay addresses T1, AHR (Homo sapiens, UniProt P35869).
T1 construct: other cell line with a DRE-luciferase reporter stably transfected; endogenous in cells; host or cells: HepG2 AhR-Lucia reporter cells
T1 sequence (P35869 11-848): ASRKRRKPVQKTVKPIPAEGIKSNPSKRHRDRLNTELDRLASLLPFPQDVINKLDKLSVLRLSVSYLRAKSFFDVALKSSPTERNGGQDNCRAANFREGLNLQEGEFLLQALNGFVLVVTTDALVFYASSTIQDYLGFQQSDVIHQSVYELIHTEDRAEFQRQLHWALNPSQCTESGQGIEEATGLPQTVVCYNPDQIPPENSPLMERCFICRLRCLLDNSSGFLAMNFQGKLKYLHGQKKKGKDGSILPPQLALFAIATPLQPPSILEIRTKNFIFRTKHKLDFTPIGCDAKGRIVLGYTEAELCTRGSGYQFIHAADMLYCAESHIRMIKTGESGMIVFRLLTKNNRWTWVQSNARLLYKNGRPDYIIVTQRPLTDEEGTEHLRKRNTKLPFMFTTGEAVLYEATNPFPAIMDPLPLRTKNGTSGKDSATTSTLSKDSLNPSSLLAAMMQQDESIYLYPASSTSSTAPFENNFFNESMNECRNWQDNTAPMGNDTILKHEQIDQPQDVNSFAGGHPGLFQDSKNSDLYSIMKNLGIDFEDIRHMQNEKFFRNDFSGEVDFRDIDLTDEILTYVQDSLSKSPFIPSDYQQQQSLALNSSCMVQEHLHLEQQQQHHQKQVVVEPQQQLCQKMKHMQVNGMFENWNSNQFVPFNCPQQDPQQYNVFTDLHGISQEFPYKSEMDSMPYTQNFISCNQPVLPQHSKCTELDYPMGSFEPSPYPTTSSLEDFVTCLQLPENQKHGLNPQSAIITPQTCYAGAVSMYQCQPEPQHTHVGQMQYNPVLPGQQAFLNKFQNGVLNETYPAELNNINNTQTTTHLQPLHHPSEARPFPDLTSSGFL
The assay can be described thus: DRE-Luciferase Reporter Assay, HepG2 AhR-Lucia reporter cells. To be noted: with AHR activating ligand at EC50, read-out: HepG2-Luc IC50. Format: cell-based. The source says: AHR binds to Dioxin Responsive Elements (DRE) upstream of genes that it activates. One measure of AHR activity is activation of a reporter gene, such as luciferase, downstream of one or multiple DRE elements. Luciferase activity will reflect activation and inhibition of AHR in the cells expressing his reporter. 20000 Human HepG2 liver carcinoma—AhR-Lucia reporter cells or Human HT29 colon adenocarcinoma—AhR reporter cells or other cell line with a DRE-luciferase reporter stably transfected were plated in Eagle's Minimal Essential Medium, 10% heat-inactivated FBS, 1× non-essential amino acids Pen-Strep (10,000 U/mL) and Normocin (100 ug/mL) in plates (96-well, 384-well or other plates) and incubated overnight at 37° C. in a CO2 incubator and treated with and without AhR antagonists at a log dilution starting at 100 uM.
After 1 hr that cells were plated an AHR activating ligand, such as TCDD, kynurenine, ITE (2-(1H-indole-3-ylcarbonyl)-4-thiazolecarboxylic methyl ester), VAF347, BNF (beta-naphthoflavone), FICZ (6-formylindolo(3,2-b) carbazole) or other AHR ligands at their specific EC50 concentration, were added to the cells with or without AHR antagonist.
Cells were incubated for 24 or 48 hours or another time point and then, supernatant was analyzed for determination of luciferase activity as a read-out of the AHR activation or inhibition. Luciferase was measured with the commercial kit QUANTI-Luc™ assay solution kit from Invivogen following the manufacturer's instructions.
The level of luciferase with only agonist ligand added was the maximum signal while the luciferase with […] was the minimum signal. IC50 values were determined as the concentration which inhibits half of the luciferase activity.
As a reminder, the pIC50 is the IC50 on a negative log10 scale, so that one unit is a factor of ten. `O=c1c2cc(-c3ccc(C(F)(F)F)nc3)nc(-c3cccnc3)c2ncn1C1CCS(=O)(=O)C1` (centres unmarked) [Compound 106, 3-(1,1-dioxidotetrahydrothiophen-3-yl)-8-(pyridin-3-yl)-6-(6-(trifluoromethyl)pyridin-3-yl)pyrido[3,4-d]pyrimidin-4(3H)-one]: the pIC50 was more than 7.00.

As for `O=c1c2cc(-c3ccc(C(F)(F)F)nc3)nc(-c3cccnc3)c2ncn1[C@@H]1CCS(=O)(=O)C1` [Compound 107, (R)-3-(1,1-dioxidotetrahydrothiophen-3-yl)-8-(pyridin-3-yl)-6-(6-(trifluoromethyl)pyridin-3-yl)pyrido[3,4-d]pyrimidin-4(3H)-one], the pIC50 is more than 7.00. Next, `C[C@@H](O)Cn1cnc2c(-c3cnn(C)c3)nc(-c3ccc(C(F)(F)F)nc3)cc2c1=O` [Compound 108, (R)-3-(2-hydroxypropyl)-8-(1-methyl-1H-pyrazol-4-yl)-6-(6-(trifluoromethyl)pyridin-3-yl)pyrido[3,4-d]pyrimidin-4(3H)-one]: more than 7.00.

Turning to `O=c1c2cc(-c3ccc(C(F)(F)F)nc3)nc(-c3cccnc3)c2ncn1-c1cccnc1` [Compound 118, 3,8-di(pyridin-3-y1)-6-(6-(trifluoromethyl)pyridin-3-yl)pyrido[3,4-d]pyrimidin-4(3H)-one], the pIC50 is more than 7.00.

For the molecule `O=c1[nH]cnc2c(-c3cccnc3)nc(-c3ccc(C(F)(F)F)nc3)cc12` [Compound 119, 8-(pyridin-3-y1)-6-(6-(trifluoromethyl)pyridin-3-yl)pyrido[3,4-d]pyrimidin-4(3H)-one], the pIC50 was more than 7.00.

Turning to `O=c1c2cc(-c3ccc(C4CC4)nc3)nc(-c3cccnc3)c2ncn1C[C@@H](O)C(F)(F)F` [Compound 121, (R)-6-(6-cyclopropylpyridin-3-yl)-8-(pyridin-3-yl)-3-(3,3,3-trifluoro-2-hydroxypropyl)pyrido[3,4-d]pyrimidin-4(3H)-one], the pIC50 is more than 7.00.

`COC(=O)[C@H](C)n1cnc2c(-c3cccnc3)nc(-c3ccc(C(F)(F)F)nc3)cc2c1=O` [Compound 127, Methyl (S)-2-(4-oxo-8-(pyridin-3-yl)-6-(6-(trifluoromethyl)pyridin-3-yl)pyrido[3,4-d]pyrimidin-3(4H)-yl)propanoate]: the pIC50 was more than 7.00. In the case of `CN1CC(O)C(n2cnc3c(-c4cccnc4)nc(-c4ccc(Cl)cc4)cc3c2=O)C1` (centres unmarked) [Compound 128, 6-(4-chlorophenyl)-3-(4-hydroxy-1-methylpyrrolidin-3-yl)-8-(pyridin-3-yl)pyrido[3,4-d]pyrimidin-4(3H)-one] it was more than 7.00. In the case of `Cn1cc(-c2nc(-c3ccc(C(F)(F)F)nc3)cc3c(=O)n([C@@H]4COC[C@@H]4O)cnc23)cn1` [Compound 130, 3-((3R,4R)-4-hydroxytetrahydrofuran-3-yl)-8-(1-methyl-1H-pyrazol-4-yl)-6-(6-(trifluoromethyl)pyridin-3-yl)pyrido[3,4-d]pyrimidin-4(3H)-one] it was more than 7.00; in that of `Cn1cc(-c2nc(-c3ccc(Cl)cc3)cc3c(=O)n([C@@H]4COC[C@@H]4O)cnc23)cn1` [Compound 131, 6-(4-chlorophenyl)-3-((3R,4R)-4-hydroxytetrahydrofuran-3-yl)-8-(1-methyl-1H-pyrazol-4-yl)pyrido[3,4-d]pyrimidin-4(3H)-one], more than 7.00; in that of `O=c1c2cc(-c3ccc(C(F)(F)F)nc3)nc(-c3cccnc3)c2ncn1C1CCCC1` [Compound 132, 3-cyclopentyl-8-(pyridin-3-yl)-6-(6-(trifluoromethyl)pyridin-3-yl)pyrido[3,4-d]pyrimidin-4(3H)-one], more than 7.00. Consider `O=c1c2cc(-c3ccc(C(F)(F)F)nc3)nc(-c3cccnc3)c2ncn1-c1ccccc1` [Compound 133, 3-phenyl-8-(pyridin-3-yl)-6-(6-(trifluoromethyl)pyridin-3-yl)pyrido[3,4-d]pyrimidin-4(3H)-one], for which the pIC50 was more than 7.00.

On to `Cn1cc(-c2nc(-c3ccc(C4CC4)nc3)cc3c(=O)n(C[C@@H](O)C(F)(F)F)cnc23)cn1` [Compound 135, (R)-6-(6-cyclopropylpyridin-3-yl)-8-(1-methyl-1H-pyrazol-4-yl)-3-(3,3,3-trifluoro-2-hydroxypropyl)pyrido[3,4-d]pyrimidin-4(3H)-one], for which the pIC50 is more than 7.00. In the case of `Cn1cc(-c2nc(-c3ccc(C(F)(F)F)cn3)cc3c(=O)n([C@H]4COC[C@@H]4O)cnc23)cn1` [Compound 137, 3-((3S,4R)-4-hydroxytetrahydrofuran-3-yl)-8-(1-methyl-1H-pyrazol-4-yl)-6-(5-(trifluoromethyl)pyridin-2-yl)pyrido[3,4-d]pyrimidin-4(3H)-one] it was more than 7.00. Next, `Cn1cc(-c2nc(-c3ccc(C(F)(F)F)cn3)cc3c(=O)n([C@@H]4COC[C@H]4O)cnc23)cn1` [Compound 138, 3-((3R,4S)-4-hydroxytetrahydrofuran-3-yl)-8-(1-methyl-1H-pyrazol-4-yl)-6-(5-(trifluoromethyl)pyridin-2-yl)pyrido[3,4-d]pyrimidin-4(3H)-one]: more than 7.00.

Consider `C[C@@H](O)Cn1cnc2c(-c3cnn(C)c3)nc(-c3ccc(C(F)(F)F)cn3)cc2c1=O` [Compound 141, (R)-3-(2-hydroxypropyl)-8-(1-methyl-1H-pyrazol-4-yl)-6-(5-(trifluoromethyl)pyridin-2-yl)pyrido[3,4-d]pyrimidin-4(3H)-one], for which the pIC50 was more than 7.00.

Take `Cn1cc(-c2nc(-c3ccc(C(F)(F)F)cn3)cc3c(=O)n(C[C@@H](O)C(F)(F)F)cnc23)cn1` [Compound 146]: the pIC50 was more than 7.00. In the case of `Cn1cc(-c2nc(-c3ccc(C(F)(F)F)cn3)cc3c(=O)n(C[C@H](O)C(F)(F)F)cnc23)cn1` [Compound 147] it was more than 7.00; in that of `Cn1cc(-c2nc(-c3ccc(C(F)(F)F)cn3)cc3c(=O)n([C@@H]4COC[C@@H]4O)cnc23)cn1` [Compound 149, 3-((3R,4R)-4-hydroxytetrahydrofuran-3-yl)-8-(1-methyl-1H-pyrazol-4-yl)-6-(5-(trifluoromethyl)pyridin-2-yl)pyrido[3,4-d]pyrimidin-4(3H)-one], more than 7.00; in that of `Cn1cc(-c2nc(-c3ccc(Cl)cc3)cc3c(=O)n([C@@H]4COC[C@H]4O)cnc23)cn1` [Compound 153, 6-(4-Chlorophenyl)-3-((3R,4S)-4-hydroxytetrahydrofuran-3-yl)-8-(1-methyl-1H-pyrazol-4-yl)pyrido[3,4-d]pyrimidin-4(3H)-one], more than 7.00. Turning to `C[C@@H](C(=O)O)n1cnc2c(-c3cccnc3)nc(-c3ccc(C(F)(F)F)nc3)cc2c1=O` [Compound 155, (S)-2-(4-oxo-8-(pyridin-3-yl)-6-(6-(trifluoromethyl)pyridin-3-yl)pyrido[3,4-d]pyrimidin-3(4H)-yl)propanoic acid], the pIC50 is less than 6.30.

On to `C[C@@H](C(=O)N(C)C)n1cnc2c(-c3cccnc3)nc(-c3ccc(C(F)(F)F)nc3)cc2c1=O` [Compound 157, (S)—N,N-dimethyl-2-(4-oxo-8-(pyridin-3-yl)-6-(6-(trifluoromethyl)pyridin-3-yl)pyrido[3,4-d]pyrimidin-3(4H)-yl)propenamide], for which the negative-log IC50 (pIC50) was more than 7.00. On to `C[C@@H](C(=O)N[C@@H]1COC[C@H]1O)n1cnc2c(-c3cccnc3)nc(-c3ccc(C(F)(F)F)nc3)cc2c1=O` [Compound 158, (S)—N-((3R,4S)-4-hydroxytetrahydrofuran-3-yl)-2-(4-oxo-8-(pyridin-3-yl)-6-(6-(trifluoromethyl)pyridin-3-yl)pyrido[3,4-d]pyrimidin-3(4H)-yl)propenamide], for which the pIC50 is 6.30 to 7.00.
